In article doi:10.1101/2022.08.09.503277v2 (biorxiv, 2022):

Target: ECD-AT1G56145 (IGP1) (Arabidopsis thaliana, UniProt F4I3K3)
Test: isothermal titration calorimetry
Assay type: binding
Settings: 20 mM sodium citrate pH 5.0, 150 mM NaCl, 25 °C; single site, N fixed to 1

For `OC[C@H]1O[C@@H](O[C@H]2[C@H](O)[C@@H](O)[C@H](O[C@H]3[C@H](O)[C@@H](O)[C@H](O[C@H]4[C@H](O)[C@@H](O)[C@H](O[C@H]5[C@H](O)[C@@H](O)C(O)O[C@@H]5CO)O[C@@H]4CO)O[C@@H]3CO)O[C@@H]2CO)[C@H](O)[C@@H](O)[C@@H]1O` (some centres unmarked) [CEL5], the Kd was 1400 ± 10 nM.
For `OC[C@H]1O[C@@H](O[C@H]2[C@H](O)[C@@H](O)[C@H](O[C@H]3[C@H](O)[C@@H](O)C(O)O[C@@H]3CO)O[C@@H]2CO)[C@H](O)[C@@H](O)[C@@H]1O` (some centres unmarked) [CEL3], the Kd was 1190 ± 30 nM.
